# Measurements taken from ChEMBL document CHEMBL2074528, “Canalicular multispecific organic anion transporter/multidrug resistance protein 2 mediates low-affinity transport of reduced glutathione” (Biochem J, 1999).
# Tests used:
# MRP2 (ABCC2) = MRP2 (ABCC2) (Homo sapiens, UniProt Q92887); assay: in vitro; conditions: dog, membrane vesicles from MRP2-expressing MDCK cells, probe DNP-SG
# Description: TP_TRANSPORTER: inhibition of DNP-SG uptake (DNP-SG: 0.015 uM, GSH: 15 mM) in membrane vesicles from MRP2-expressing MDCK cells
# [1] = substrate: N[C@@H](CCC(=O)N[C@H](CSc1ccc([N+](=O)[O-])cc1[N+](=O)[O-])C(=O)NCC(=O)O)C(=O)O; assay: TP_TRANSPORTER: uptake in membranes from MRP2-expressing MDCK cells; assay type: functional, cell membranes, MDCK-II, Membrane
Molecule,activity at 15 mM (MRP2 (ABCC2)) [%],Km [1] [µM]
N[C@@H](CCC(=O)N[C@@H](CS)C(=O)NCC(=O)O)C(=O)O [GLUTATHIONE],51,
ATP-binding cassette sub-family C member 2 (Homo sapiens) (protein) MLEKFCNSTFWNSSFLDSPEADLPLCFEQTVLVWIPLGYLWLLAPWQLLHVYKSRTKRSSTTKLYLAKQVFVGFLLILAAIELALVLTEDSGQATVPAVRYTNPSLYLGTWLLVLLIQYSRQWCVQKNSWFLSLFWILSILCGTFQFQTLIRTLLQGDNSNLAYSCLFFISYGFQILILIFSAFSENNESSNNPSSIASFLSSITYSWYDSIILKGYKRPLTLEDVWEVDEEMKTKTLVSKFETHMKRELQKARRALQRRQEKSSQQNSGARLPGLNKNQSQSQDALVLEDVEKKKKKSGTKKDVPKSWLMKALFKTFYMVLLKSFLLKLVNDIFTFVSPQLLKLLISFASDRDTYLWIGYLCAILLFTAALIQSFCLQCYFQLCFKLGVKVRTAIMASVYKKALTLSNLARKEYTVGETVNLMSVDAQKLMDVTNFMHMLWSSVLQIVLSIFFLWRELGPSVLAGVGVMVLVIPINAILSTKSKTIQVKNMKNKDKRLKIMNEILSGIKILKYFAWEPSFRDQVQNLRKKELKNLLAFSQLQCVVIFVFQLTPVLVSVVTFSVYVLVDSNNILDAQKAFTSITLFNILRFPLSMLPMMISSMLQASVSTERLEKYLGGDDLDTSAIRHDCNFDKAMQFSEASFTWEHDSEATVRDVNLDIMAGQLVAVIGPVGSGKSSLISAMLGEMENVHGHITIKGTTAYVPQQSWIQNGTIKDNILFGTEFNEKRYQQVLEACALLPDLEMLPGGDLAEIGEKGINLSGGQKQRISLARATYQNLDIYLLDDPLSAVDAHVGKHIFNKVLGPNGLLKGKTRLLVTHSMHFLPQVDEIVVLGNGTIVEKGSYSALLAKKGEFAKNLKTFLRHTGPEEEATVHDGSEEEDDDYGLISSVEEIPEDAASITMRRENSFRRTLSRSSRSNGRHLKSLRNSLKTRNVNSLKEDEELVKGQKLIKKEFIETGKVKFSIYLEYLQAIGLFSIFFIILAFVMNSVAFIGSNLWLSAWTSDSKIFNSTDYPASQRDMRVGVYGALGLAQGIFVFIAHFWSAFGFVHASNILHKQLLNNILRAPMRFFDTTPTGRIVNRFAGDISTVDDTLPQSLRSWITCFLGIISTLVMICMATPVFTIIVIPLGIIYVSVQMFYVSTSRQLRRLDSVTRSPIYSHFSETVSGLPVIRAFEHQQRFLKHNEVRIDTNQKCVFSWITSNRWLAIRLELVGNLTVFFSALMMVIYRDTLSGDTVGFVLSNALNITQTLNWLVRMTSEIETNIVAVERITEYTKVENEAPWVTDKRPPPDWPSKGKIQFNNYQVRYRPELDLVLRGITCDIGSMEKIGVVGRTGAGKSSLTNCLFRILEAAGGQIIIDGVDIASIGLHDLREKLTIIPQDPILFSGSLRMNLDPFNNYSDEEIWKALELAHLKSFVASLQLGLSHEVTEAGGNLSIGQRQLLCLGRALLRKSKILVLDEATAAVDLETDNLIQTTIQNEFAHCTVITIAHRLHTIMDSDKVMVLDNGKIIECGSPEELLQIPGPFYFMAKEAGIENVNSTKF,,70
